From patent US20030212074A1, “Phosphate transport inhibitors” (priority 2000, published 2003)

System: Sodium-dependent phosphate transport
Experiment: Phosphate uptake assay in human proximal tubule cells (32P-labelled inorganic phosphate uptake)
Type: cell-based
Details: whole cell assay, 32P uptake
Protocol: Sodium-dependent phosphate transport inhibition is determined by the ability of the test compound to inhibit the uptake of radio-labeled inorganic phosphate by proximal tubule cells. Appropriate cells from human, rabbit, or rat may be used.
Cell Preparation and Phosphate Uptake Assay.
Rabbit proximal tubule cells were isolated and cultured according to the procedure of Sakhrani, L. M. et al., Am. J. Physiol. 246:F757-F764, (1984) whose disclosure is incorporated herein by reference in its entirety. Human proximal tubule cells were purchased from Clonetics (San Diego, Calif.) and grown according to the suppliers' instructions. On the day of the experiment, cells were harvested from culture plates with 0.5 mM EDTA in phosphate buffered saline. The cells were washed twice in uptake buffer (see below) and equilibrated at 37 C in the same buffer for 30 minutes. Aliquots of cells (100 ul, 0.5 to 1 million cells) were distributed into glass test tubes. Fifty ul of drug solution or buffer were added followed by 50 ul of uptake buffer containing 100 uM [^32P]-K2HPO4 (0.5 to 1 uCi/tube).After varying periods of time (usually 4 minutes) at 37 C, uptakes were stopped with 4 ml of cold stop solution (see below) and the cells were washed 3 times in this solution by centrifugation. The pelleted cells were dissolved in 0.5 ml 1 N NaOH and ^32P was counted in a liquid scintillation counter. Phosphate uptake is expressed as pmol phosphate/mg cell protein.
In the above noted whole cell assay system for rabbit and human proximal tubule cells the cells are harvested by filtration and ^32P uptake is measured. It is also possible to use ^33P rather than ^32P.

IC50 [µM] | SMILES
12 | O=C(Nc1ccc(Br)cc1)c1cc(Br)ccc1NS(=O)(=O)c1ccc(Cl)s1 [5-bromo-N-(4-bromophenyl)-2-(5-chloro-2-thienylsulfonamido)benzamide]
14 | O=C(Nc1ccc(Br)cc1)c1cc(Br)ccc1NS(=O)(=O)CCCCl [5-bromo-N-(4-bromophenyl)-2-(3-chloropropylsulfonamido)benzamide]
15 | O=C(Nc1ccc(Br)cc1)c1cc(Br)ccc1NS(=O)(=O)c1ccccc1F [5-bromo-N-(4-bromophenyl)-2-(2-fluorophenylsulfonamido)benzamide]
